Experimental findings from ChEMBL document CHEMBL4376806, “Antibiotic Adjuvants: Make Antibiotics Great Again!” (2019) are described below.

Assay [1] relates to Klebsiella aerogenes. The experiment in a line: Inhibition of AcrAB-TolC in Enterobacter aerogenes EA3 assessed as potentiation of norfloxacin-induced antibacterial activity by measuring norfloxacin MIC at 0.2 mM incubated for 18 hrs (reference value: 256 ug/ml).
Assay [2] deals with Klebsiella aerogenes. Description: Inhibition of AcrAB-TolC in Enterobacter aerogenes EA3 assessed as potentiation of tetracycline-induced antibacterial activity by measuring tetracycline MIC at 0.2 mM incubated for 18 hrs (reference value: 8 ug/ml).
Assay [3] concerns Klebsiella aerogenes. The experiment in a line: Inhibition of AcrAB-TolC in Enterobacter aerogenes EA3 assessed as potentiation of chloramphenicol-induced antibacterial activity by measuring chloramphenicol MIC at 0.2 mM incubated for 18 hrs (reference value: 512 ug/ml).
The subject of a further assay is Klebsiella pneumoniae. The experiment in a line: Potentiation of meropenem-induced antibacterial activity against Klebsiella pneumoniae N11-2218 harboring NDM1 infected in CD1 mouse assessed as mouse survival at 30 mg/kg, sc administered 30 mins post infection and measured 5 days post infection (reference value: 0%). Conditions: N11-2218, sc. It is filed as functional.

The target in assay [4] is Metallo-beta-lactamase type 2 (Klebsiella pneumoniae) (UniProt C7C422). Description: Inhibition of beta-lactamase NDM-1 in Klebsiella pneumoniae N11-2218 assessed as potentiation of meropenem-induced antibacterial activity by measuring meropenem MIC at 8 ug/ml (Rvb =32 ug/ml).
Assay [5] has as its target Beta-lactamase CTX-M-27 (Escherichia coli) (UniProt Q840M4). The experiment in a line: Inhibition of beta-lactamase CTX-M-27 in Escherichia coli (EC113) ST 131 assessed as potentiation of ampicillin-induced antibacterial activity by measuring ampicillin MIC at 10 ug/ml incubated for 18 hrs by CLSI based broth microtitre dilution method (Rvb >16 ug/ml).
Assay [6] has the same target. The experiment in a line: Inhibition of beta-lactamase CTX-M-27 in Escherichia coli (EC113) ST 131 assessed as potentiation of piperacillin-induced antibacterial activity by measuring piperacillin MIC at 10 ug/ml incubated for 18 hrs by CLSI based broth microtitre dilution method (Rvb >64 ug/ml).
Assay [7] has the same target. Description: Inhibition of beta-lactamase CTX-M-27 in Escherichia coli (EC113) ST 131 assessed as potentiation of aztreonam-induced antibacterial activity by measuring aztreonam MIC at 10 ug/ml incubated for 18 hrs by CLSI based broth microtitre dilution method (Rvb >16 ug/ml).
Assay [8] shares this target. The experiment in a line: Inhibition of beta-lactamase CTX-M-27 in Escherichia coli (EC113) ST 131 assessed as potentiation of cefazolin-induced antibacterial activity by measuring cefazolin MIC at 10 ug/ml incubated for 18 hrs by CLSI based broth microtitre dilution method (Rvb >16 ug/ml).
The target is the same in assay [9]. Description: Inhibition of beta-lactamase CTX-M-27 in Escherichia coli (EC113) ST 131 assessed as potentiation of ceftriaxone-induced antibacterial activity by measuring ceftriaxone MIC at 10 ug/ml incubated for 18 hrs by CLSI based broth microtitre dilution method (Rvb >32 ug/ml).
Assay [10] shares this target. Description: Inhibition of beta-lactamase CTX-M-27 in Escherichia coli (EC113) ST 131 assessed as potentiation of ceftazidime-induced antibacterial activity by measuring ceftazidime MIC at 10 ug/ml incubated for 18 hrs by CLSI based broth microtitre dilution method (reference value: 8 ug/ml).
The target is the same in assay [11]. The experiment in a line: Inhibition of beta-lactamase CTX-M-27 in Escherichia coli (EC113) ST 131 assessed as potentiation of cefepime-induced antibacterial activity by measuring cefepime MIC at 10 ug/ml incubated for 18 hrs by CLSI based broth microtitre dilution method (Rvb >32 ug/ml).
Assay [12] deals with T1, MexAB/OprM (Pseudomonas aeruginosa (strain ATCC 15692 / DSM 22644 / CIP 104116 / JCM14847 / LMG 12228 / 1C / PRS 101 / PAO1)) (UniProt P52477+P52002+Q51487). Description: Inhibition of MexAB/OprM in Pseudomonas aeruginosa PAO1 assessed as potentiation of carbenicillin-induced antibacterial activity by measuring carbenicillin MIC at 128 ug/ml incubated for 18 hrs (reference value: 64 ug/ml).

The target in assay [13] is T1, MexAB/OprM (Pseudomonas aeruginosa (strain ATCC 15692 / DSM 22644 / CIP 104116 / JCM14847 / LMG 12228 / 1C / PRS 101 / PAO1)). The experiment in a line: Inhibition of MexAB/OprM in Pseudomonas aeruginosa PAO1 assessed as potentiation of chloramphenicol-induced antibacterial activity by measuring chloramphenicol MIC at 128 ug/ml incubated for 18 hrs (reference value: 64 ug/ml).

Assay [14] has the same target. The experiment in a line: Inhibition of MexAB/OprM in Pseudomonas aeruginosa PAO1 assessed as potentiation of ciprofloxacin-induced antibacterial activity by measuring ciprofloxacin MIC at 128 ug/ml incubated for 18 hrs (reference value: 1 ug/ml).
For assay [15] the target is unchanged. Description: Inhibition of MexAB/OprM in Pseudomonas aeruginosa PAO1 assessed as potentiation of novobiocin-induced antibacterial activity by measuring novobiocin MIC at 128 ug/ml incubated for 18 hrs (reference value: 512 ug/ml).
Assay [16] has the same target. The experiment in a line: Inhibition of MexAB/OprM in Pseudomonas aeruginosa PAO1 assessed as potentiation of tetracycline-induced antibacterial activity by measuring tetracycline MIC at 128 ug/ml incubated for 18 hrs (reference value: 8 ug/ml).
For assay [17] the target is unchanged. The experiment in a line: Inhibition of MexAB/OprM in Pseudomonas aeruginosa PAO1 assessed as potentiation of trimethoprim-induced antibacterial activity by measuring trimethoprim MIC at 128 ug/ml incubated for 18 hrs (reference value: 128 ug/ml).
Assay [18] concerns Staphylococcus aureus. Description: Inhibition of beta-lactamase in Staphylococcus aureus assessed as potentiation of ampicillin-induced antibacterial activity by measuring ampicillin MIC incubated for 24 hrs by CLSI method (Rvb > 200 ug/ml).
Assay [19] relates to Streptococcus pyogenes. The experiment in a line: Inhibition of beta-lactamase in Streptococcus pyogenes assessed as potentiation of ampicillin-induced antibacterial activity by measuring ampicillin MIC incubated for 24 hrs by CLSI method (Rvb > 200 ug/ml).
The next assay deals with Escherichia coli. The experiment in a line: Inhibition of beta-lactamase in Escherichia coli assessed as potentiation of ampicillin-induced antibacterial activity by measuring ampicillin MIC incubated for 24 hrs by CLSI method (reference value: 100 ug/ml).
Assay [20] deals with Pseudomonas aeruginosa. Description: Inhibition of beta-lactamase in Pseudomonas aeruginosa assessed as potentiation of ampicillin-induced antibacterial activity by measuring ampicillin MIC incubated for 24 hrs by CLSI method (Rvb >200 ug/ml).
Assay [21] has as its system Staphylococcus aureus. The experiment in a line: Synergistic antibacterial activity against Staphylococcus aureus assessed as fractional inhibitory concentration index in presence of ampicillin by checkerboard assay. The class given is functional.
Assay [22] concerns Streptococcus pyogenes. Description: Synergistic antibacterial activity against Streptococcus pyogenes assessed as fractional inhibitory concentration index in presence of ampicillin by checkerboard assay. It is filed as functional.
Assay [23] concerns Pseudomonas aeruginosa. Description: Synergistic antibacterial activity against Pseudomonas aeruginosa assessed as fractional inhibitory concentration index in presence of ampicillin by checkerboard assay. The class given is functional.

For the molecule `Cc1c([N+](=O)[O-])ccc2c(NCCN3CCCCC3)ccnc12`, the MIC is 16 µg/mL in the assay with Klebsiella aerogenes [1], 0.5 µg/mL in the assay with Klebsiella aerogenes [2] and 2 µg/mL with Klebsiella aerogenes [3].
As to `N[C@H](CN[C@H](CN[C@@H](CC(=O)O)C(=O)O)C(=O)O)C(=O)O`, the survival at 30 mg/kg with Klebsiella pneumoniae was 95%. The MIC in [4] is 1 µg/mL.
For `NCc1ccc(C(=O)N[C@H]2Cc3cccc(C(=O)O)c3O[B-]2(O)O)cc1`, the MIC in assay [5] is less than 8 µg/mL; in [6] it was less than 16 µg/mL; in assay [7] it was less than 1 µg/mL; in assay [8], 4 µg/mL; in assay [9], less than 0.5 µg/mL; in assay [10] it was less than 1 µg/mL. Further, in [11], the MIC is less than 4 µg/mL.
As to `O=C(O[C@@H]1Cc2c(O)cc(O)cc2O[C@@H]1c1cc(O)c(O)c(O)c1)c1cc(O)c(O)c(O)c1`, the MIC is 64 µg/mL in assay [12]; 16 µg/mL in [13]; 0.5 µg/mL in assay [14]; 128 µg/mL in assay [15]; 2 µg/mL in [16]; 32 µg/mL in assay [17].
With `CC[C@H](/C=C/[C@@H](C)[C@H]1CC[C@H]2[C@@H]3CC=C4C[C@@H](O)CC[C@]4(C)[C@H]3CC[C@]12C)C(C)C` [STIGMASTEROL], the MIC came out at 3.13 µg/mL in the assay with Staphylococcus aureus [18], 1.56 µg/mL in the assay on Streptococcus pyogenes [19], 6.25 µg/mL in the assay on Escherichia coli and 6.25 µg/mL with Pseudomonas aeruginosa [20]. For the same molecule, the “fractional inhibitory concentration index (FICI)” value with Staphylococcus aureus [21], with Streptococcus pyogenes [22] and in the assay with Pseudomonas aeruginosa [23] was less than 0.5 in each case.
